In patent US9630947B2, “Therapeutic compounds and related methods of use” (OTSUKA PHARMACEUTICAL CO., LTD., priority 2009, dated 2017) one finds IC50 data, which are given here for 67 compounds.

Structures are written as SMILES.

What is called IC50 is the concentration that gives 50% inhibition.

The target of the test is T1, purified STEP46 enzyme (Homo sapiens, UniProt P54829).
T1 sequence (P54829 1-565): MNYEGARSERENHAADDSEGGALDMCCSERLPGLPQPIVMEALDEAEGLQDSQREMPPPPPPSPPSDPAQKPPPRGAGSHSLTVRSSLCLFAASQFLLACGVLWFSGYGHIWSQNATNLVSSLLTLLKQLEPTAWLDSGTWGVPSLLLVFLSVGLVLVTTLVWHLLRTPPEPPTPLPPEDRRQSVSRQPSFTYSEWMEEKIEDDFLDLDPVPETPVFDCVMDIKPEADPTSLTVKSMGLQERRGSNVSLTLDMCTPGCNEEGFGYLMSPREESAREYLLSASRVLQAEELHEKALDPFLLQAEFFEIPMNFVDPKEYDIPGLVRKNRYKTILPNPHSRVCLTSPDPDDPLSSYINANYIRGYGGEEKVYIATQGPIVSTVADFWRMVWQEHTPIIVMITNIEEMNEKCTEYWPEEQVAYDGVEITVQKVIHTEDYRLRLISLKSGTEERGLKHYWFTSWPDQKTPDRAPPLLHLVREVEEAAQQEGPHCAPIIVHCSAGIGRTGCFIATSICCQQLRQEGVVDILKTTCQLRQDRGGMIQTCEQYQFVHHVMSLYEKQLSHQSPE
The experiment in a line: STEP46 biochemical assay (DiFMUP fluorescence phosphatase assay). The note with it: DiFMUP 10 μM, read-out: STEP IC50. The gist of the method:
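Compounds preincubated 30 min at room temperature with purified STEP46 (1 ng/well) in 50 mM Hepes, 1 mM DTT, 0.02% Brij35, then 10 μM DiFMUP (final) added for 90 min at 27 °C; 2% DMSO, fluorescence at 360/460 nm. IC50 from four-parameter fit of % inhibition; activators reported as negative % inhibition at 25, 50 and 100 uM.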
For the compound `COc1ccccc1-c1ccc2c(Nc3ccc(F)c(Cl)c3)nc(-c3cccnc3)nc2c1` [Compound 682], the IC50 fell in the range of 1 to 10 µM.
The same measure for `COc1ccc2nc(-c3cnccn3)nc(Nc3ccc(Cl)c(Cl)c3)c2c1` [Compound 1234]: 1 to 10 µM; for `CNc1nc(-c2cccnc2)nc2c(C)cc(-c3ccccc3OC)cc12` [Compound 1283]: more than 10 µM; for `COc1ccc2nc(-c3cccnc3)nc(Nc3nc(-c4ccccc4OC(F)(F)F)cs3)c2c1` [Compound 454]: 1 to 10 µM.
As to `COCCN(C)c1nc(-c2cccnc2)nc2ccc(-c3cccc(F)c3F)cc12` [Compound 1391], the IC50 is more than 10 µM.
With `CNc1nc(-c2cccnc2)nc2ccc(-c3cccc4occc34)cc12` [Compound 1370] the figure was 1 to 10 µM; with `CC(C)Oc1cccc(-c2ccc3nc(-c4cccnc4)nc(Nc4ccc(F)c(Cl)c4)c3c2)c1` [Compound 673], 1 to 10 µM.
Regarding `CNc1nc(-c2cccnc2)nc2ccc(-c3ccc4sccc4c3)cc12` [Compound 1341], the IC50 fell in the range of 1 to 10 µM.
The same measure for `CCOc1ccc2nc(-c3cccnc3)nc(Nc3ccccc3C(N)=O)c2c1` [Compound 73]: 1 to 10 µM.
Take `COc1ccc2nc(-c3cccnc3)nc(Nc3nc(-c4ccc(Cl)cc4)cs3)c2c1` [Compound 399]: the IC50 is less than 1 µM.
Regarding `Fc1ccc(Nc2nc(-c3cccnc3)nc3cc(-c4ccccc4)ccc23)cc1Cl` [Compound 692], the IC50 was less than 1 µM.
In the case of `CNc1nc(-c2cccnc2)nc2c(C)cc(-c3cccc(C#N)c3)cc12` [Compound 1281], the half-maximal inhibitory concentration (IC50) is less than 1 µM.
The same measure for `Fc1ccc(Nc2nc(-c3ccnnc3)nc3cc(Cl)ccc23)cc1F` [Compound 1202]: 1 to 10 µM; for `CNc1nc(-c2cccnc2)nc2cc(-c3cccc(C)c3)ccc12` [Compound 1361]: more than 10 µM; for `COc1ccc2nc(-c3cccnc3)nc(Nc3ccc(-c4ccc(Cl)cc4)cc3)c2c1` [Compound 424]: 1 to 10 µM.
With `N#Cc1cccc(Nc2nc(-c3cnccn3)nc3ccccc23)c1` [Compound 1221] the figure was more than 10 µM; with `CNc1nc(-c2cccnc2)nc2ccc(-c3ccc(F)c(C(F)(F)F)c3)cc12` [Compound 1401], 1 to 10 µM.
With `COc1ccc2nc(-c3cccnc3)nc(Nc3ccc4ccn(C)c4c3)c2c1` [Compound 303] the figure was 1 to 10 µM; with `COc1cc(-c2ccc3nc(-c4cccnc4)nc(Nc4ccc(F)c(Cl)c4)c3c2)ccc1C` [Compound 670], less than 1 µM; with `Cc1cccc(CNc2nc(-c3cccnc3)nc3ccc(-c4ccc(F)cc4F)cc23)n1` [Compound 1437], 1 to 10 µM.
`CNc1nc(-c2cccnc2)nc2cc(-c3ccccc3F)ccc12` [Compound 1358]: the IC50 lay in the range of 1 to 10 µM.
The same measure for `COc1ccc2nc(-c3cccnc3)nc(Nc3nnc(-c4ccc(Cl)cc4)s3)c2c1` [Compound 412]: less than 1 µM; for `COc1ccc2nc(-c3cccnc3)nc(Nc3ccc4ncsc4c3)c2c1` [Compound 296]: 1 to 10 µM; for `COc1ccc2nc(-c3cccnc3)nc(Nc3nc(C4CCCCC4)cs3)c2c1` [Compound 433]: 1 to 10 µM.
The same measure for `COc1ccc2nc(-c3cccnc3)nc(Nc3ccccc3C(=O)NC(C)c3cccc(C(F)(F)F)c3)c2c1` (stereo not shown) [Compound 888]: more than 10 µM.
With `N#Cc1ccc(-c2ccc3c(Nc4ccc(F)c(Cl)c4)nc(-c4cccnc4)nc3c2)cc1` [Compound 690], the IC50 lay within 1 to 10 µM.
The same measure for `COc1ccc2nc(-c3cccnc3)nc(Nc3ccc4c(c3)CCC4)c2c1` [Compound 306]: more than 10 µM.
As to `FC1(F)Oc2ccc(Nc3nc(-c4cncnc4)nc4ccccc34)cc2O1` [Compound 1173], the IC50 is more than 10 µM.
With `COc1ccc2nc(-c3cnccn3)nc(Nc3ccc(F)c(F)c3)c2c1` [Compound 1192] the figure was 1 to 10 µM; with `Fc1ccc(Nc2nc(-c3ccnnc3)nc3cc(Cl)ccc23)cc1Cl` [Compound 1201], 1 to 10 µM.
On to `COc1cccc(-c2ccc3nc(-c4cccnc4)nc(Nc4ccc(F)c(Cl)c4)c3c2)c1OC` [Compound 644], for which the half-inhibitory concentration (IC50) lay in the range of 1 to 10 µM.
The same measure for `COc1ccc2nc(-c3cccnc3)nc(Nc3ccc(C)c(C)c3)c2c1` [Compound 923]: 1 to 10 µM; for `CNc1nc(-c2cccnc2)nc2ccc(-c3ccc(F)cc3F)c(C)c12` [Compound 1286]: 1 to 10 µM.
With `Fc1ccc(-c2ccc3nc(-c4cccnc4)nc(Nc4ccc(F)c(Cl)c4)c3c2)cc1` [Compound 638] the figure was 1 to 10 µM; with `COc1ccc2nc(-c3cccnc3)nc(Nc3ccccc3C(=O)NC3CCc4ccccc43)c2c1` (stereo not shown) [Compound 898], more than 10 µM; with `COc1ccc2nc(-c3cccnc3)nc(Nc3ccc(Br)cc3)c2c1` [Compound 421], more than 10 µM.
With `CN(C)c1ccc2nc(-c3ccnnc3)nc(Nc3ccccc3C(N)=O)c2c1` [Compound 1151] the figure was 1 to 10 µM.
Regarding `CC(=O)c1ccc(-c2ccc3nc(-c4cccnc4)nc(N)c3c2)cc1` [Compound 1327], the IC50 is more than 10 µM.
With `FC1(F)Oc2ccc(Nc3nc(-c4cccnc4)nc4ccc(-c5cccnc5)cc34)cc2O1` [Compound 312] the figure was less than 1 µM; with `CNc1c(-c2cc(F)cc(F)c2)ccc2nc(-c3cccnc3)nc(C)c12` [Compound 1422], 1 to 10 µM.
With `CCOc1ccc2nc(-c3cccnc3)nc(Nc3nc(-c4ccc(Cl)cc4)cs3)c2c1` [Compound 467] the figure was 1 to 10 µM; with `COc1ccc2nc(-c3ccnnc3)nc(Nc3ccccc3C(N)=O)c2c1` [Compound 1198], 1 to 10 µM; with `COc1ccc2nc(-c3cccnc3)nc(Nc3nc(-c4ccccc4F)cs3)c2c1` [Compound 439], less than 1 µM.
With `Cc1ccc(F)c(-c2ccc3nc(-c4cccnc4)nc(Nc4ccc(F)c(Cl)c4)c3c2)c1` [Compound 669] the figure was less than 1 µM.
For `FC(F)(F)Oc1cccc(Nc2nc(-c3cnccn3)nc3ccccc23)c1` [Compound 1150], the IC50 is more than 10 µM.
On to `COc1ccc2nc(-c3cccnc3)nc(Nc3ccc4c(C)cc(=O)[nH]c4c3)c2c1` [Compound 333], for which the IC50 was less than 1 µM.
The same measure for `CNc1nc(-c2cccnc2)nc2cc(C)c(-c3ccc(F)c(F)c3)cc12` [Compound 1416]: 1 to 10 µM; for `CCCOCCOc1cccc(-c2ccc3nc(-c4cccnc4)nc(NC)c3c2)c1` [Compound 1497]: 1 to 10 µM; for `CCOc1ccc2nc(-c3cccnc3)nc(Nc3ccc4ccc(=O)[nH]c4c3)c2c1` [Compound 335]: less than 1 µM.
With `NC(=O)c1ccccc1Nc1nc(-c2cccnc2)nc2cc(-c3cccc(F)c3)ccc12` [Compound 700] the figure was less than 1 µM; with `COc1ccc2nc(-c3cccnc3)nc(Nc3nc(-c4ccccc4C)cs3)c2c1` [Compound 444], less than 1 µM; with `CNc1nc(-c2cccnc2)nc2cc(-c3ccc(F)cc3)c(C)cc12` [Compound 1404], more than 10 µM.
The same measure for `Fc1ccc(-c2ccc3c(Nc4cccc(OC(F)(F)F)c4)nc(-c4cccnc4)nc3c2)cc1` [Compound 708]: 1 to 10 µM.
Regarding `NC(=O)c1ccc(-c2ccc3c(Nc4ccc(F)c(Cl)c4)nc(-c4cccnc4)nc3c2)cc1` [Compound 684], the IC50 lay in the range of 1 to 10 µM.
Take `Clc1ccc2nc(-c3cnccn3)nc(Nc3ccc(Cl)c(Cl)c3)c2c1` [Compound 1160]: the IC50 was in the range of 1 to 10 µM.
In the case of `COc1ccc(-c2ccc3nc(-c4cccnc4)nc(Nc4ccc(F)c(Cl)c4)c3c2)c(OC)n1` [Compound 655], the IC50 is less than 1 µM.
As to `CNc1c(-c2ccc(C#N)cc2)ccc2nc(-c3cccnc3)nc(C)c12` [Compound 1424], the 50% inhibitory concentration (IC50) is more than 10 µM.
With `COc1ccc2nc(-c3cccnc3)nc(Nc3nc(-c4cccc(C#N)c4)cs3)c2c1` [Compound 453] the figure was less than 1 µM; with `CNc1nc(-c2cccnc2)nc2c(C)c(-c3ccc(F)c(F)c3)ccc12` [Compound 1445], 1 to 10 µM; with `CC(=O)Nc1nc(-c2cccnc2)nc2ccc(-c3cccc(F)c3F)cc12` [Compound 1369], 1 to 10 µM.
The same measure for `Cc1cc(Cl)cc2c(Nc3ccccc3C(N)=O)nc(-c3cnccn3)nc12` [Compound 1226]: 1 to 10 µM; for `Cc1cccc(-c2ccc3c(Nc4ccc(F)c(Cl)c4)nc(-c4cccnc4)nc3c2)c1` [Compound 696]: less than 1 µM.
The same measure for `CNc1nc(-c2cccnc2)nc2cc(-c3ccc(C(C)=O)cc3)ccc12` [Compound 1351]: 1 to 10 µM; for `CCOc1ccc2nc(-c3cccnc3)nc(Nc3nc(-c4cc(F)ccc4F)cs3)c2c1` [Compound 471]: 1 to 10 µM; for `Fc1ccc(Nc2nc(-c3cncnc3)nc3ccccc23)cc1Cl` [Compound 1230]: 1 to 10 µM.
On to `FC(F)Oc1cccc(Nc2nc(-c3cncnc3)nc3ccccc23)c1` [Compound 1211], for which the IC50 was more than 10 µM.
The same measure for `CNc1nc(-c2cccnc2)nc2ccc(-c3cccc4sccc34)cc12` [Compound 1340]: 1 to 10 µM.
